Measured values reported in US20120322661A1, “Organized Liquid Mixture” (priority 2010, published 2012).

Assay: Conductivity measurement for micellar entrapment of fomesafen sodium
Type: physicochemical
Settings: aqueous solution
Experimental: A series of the experiments were conducted to establish that a combination of a sorbitan ester alkoxylate with a vegetable oil ethoxylate provided a stable micellar solubilization of the water soluble herbicide fomesafen sodium. Studies were also designed to confirm that the fomesafen sodium present within the formulation was partitioned between the micro-domains of the aqueous phase and the micellar oil phase.
The conductivity of an aqueous solution of fomesafen sodium was measured at different concentrations of fomesafen sodium. The results were plotted on a graph with measured conductivity plotted on Y-axis and the corresponding concentration on the X-axis. It was observed that the conductivity increased with the salt concentration and dropped suddenly above 0.45 g/L. It is believed that at this inflection concentration, fomesafen sodium self-aggregated to form an aggregated structure.
In another series of experiments, the formulations according to the present invention exemplified by examples 1 and 2 were tested at various concentrations of fomesafen sodium active ingredients and the resulting conductivity was measured. The results were plotted on a graph with measured conductivity plotted on Y-axis and the corresponding concentration on the X-axis. […]

CS(=O)(=O)N=C([O-])c1cc(Oc2ccc(C(F)(F)F)cc2Cl)ccc1[N+](=O)[O-].[Na+] [fomesafen sodium, sodium (EZ)-5-(2-chloro-α,α,α-trifluoro-p-tolyloxy)-N-mesyl-2-nitrobenzenecarboximidate]
Concentration above which conductivity dropped suddenly (inflection concentration, self-aggregation): above 0.45 g/L
